# Measurements as given in ChEMBL document CHEMBL1201862, “PubChem BioAssay data set” (2004).
# Active and inactive are the calls of the source.
# Tests used:
# [1] = THP-1 cell cytotoxicity, dose response, cytotoxicity control for non-replicating M. tuberculosis project (AID 489025); format: functional
# [2] = HepG2 cell cytotoxicity, dose response, cytotoxicity control for non-replicating M. tuberculosis project (AID 489018); format: functional; details: Mycobacterium tuberculosis
# Vero = assay: West Nile virus antiviral activity, cell-based, CPE readout (AID 1621); format: functional; details: Chlorocebus sabaeus
# [3] = growth suppression of PTEN-null colon cells, dose response, cell-based, HCT116 PTEN knockout (AID 1047); format: functional;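 also: HCT116 colon tumor cells with PTEN knocked out; cells exposed to compound for 60 hours before readout; potency for loss of cell viability measured by luminescence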
# [4] = growth suppression of beta-catenin-knockout colon cells, dose response, cell-based, HCT116, human colon tumor (AID 1045); format: functional;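 also: HCT116 colon tumor cells with beta catenin knocked out; cells exposed to compound for 60 hours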
# CAAX prenyl protease 2 = CAAX prenyl protease 2 (Saccharomyces cerevisiae S288c, UniProt Q03530); format: biochemical
# Chain of CAAX prenyl protease 2 (Q03530 whole entry, the tested form may be a part): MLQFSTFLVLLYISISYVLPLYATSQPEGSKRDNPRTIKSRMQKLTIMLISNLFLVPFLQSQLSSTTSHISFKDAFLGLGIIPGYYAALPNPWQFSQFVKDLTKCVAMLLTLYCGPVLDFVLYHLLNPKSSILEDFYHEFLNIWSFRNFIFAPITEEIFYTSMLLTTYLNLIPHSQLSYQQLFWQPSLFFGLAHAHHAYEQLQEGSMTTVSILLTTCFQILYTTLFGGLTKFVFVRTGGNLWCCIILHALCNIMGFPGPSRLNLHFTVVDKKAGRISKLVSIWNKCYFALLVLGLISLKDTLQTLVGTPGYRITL
# [5] = target: 1-acylglycerol-3-phosphate O-acyltransferase ABHD5/Perilipin-5 (Homo sapiens, UniProt Q00G26+Q8WTS1); assay: Luminescence-based biochemical high throughput dose response assay for inhibitors of the interaction of the lipase co-activator protein, abhydrolase domain containing 5 (ABHD5) with perilipin-5 (MLDP; PLIN5) (2K validation set). [Related pubchem assays (depositor defined):AID493035, AID493241]
# Chain of 1-acylglycerol-3-phosphate O-acyltransferase ABHD5/Perilipin-5 (Q00G26 whole entry, the tested form may be a part): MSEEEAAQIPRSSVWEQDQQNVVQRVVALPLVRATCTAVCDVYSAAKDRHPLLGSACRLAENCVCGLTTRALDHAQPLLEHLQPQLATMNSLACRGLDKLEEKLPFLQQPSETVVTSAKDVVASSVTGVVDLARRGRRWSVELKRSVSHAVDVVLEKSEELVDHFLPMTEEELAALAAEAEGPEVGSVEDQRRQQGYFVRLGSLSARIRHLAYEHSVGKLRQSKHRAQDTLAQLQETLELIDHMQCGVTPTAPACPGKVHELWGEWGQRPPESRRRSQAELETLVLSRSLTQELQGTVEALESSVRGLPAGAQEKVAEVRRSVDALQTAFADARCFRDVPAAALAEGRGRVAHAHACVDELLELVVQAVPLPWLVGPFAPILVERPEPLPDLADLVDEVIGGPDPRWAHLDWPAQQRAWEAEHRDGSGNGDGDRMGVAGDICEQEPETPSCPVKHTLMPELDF
# Chain of 1-acylglycerol-3-phosphate O-acyltransferase ABHD5/Perilipin-5 (Q8WTS1 whole entry, the tested form may be a part): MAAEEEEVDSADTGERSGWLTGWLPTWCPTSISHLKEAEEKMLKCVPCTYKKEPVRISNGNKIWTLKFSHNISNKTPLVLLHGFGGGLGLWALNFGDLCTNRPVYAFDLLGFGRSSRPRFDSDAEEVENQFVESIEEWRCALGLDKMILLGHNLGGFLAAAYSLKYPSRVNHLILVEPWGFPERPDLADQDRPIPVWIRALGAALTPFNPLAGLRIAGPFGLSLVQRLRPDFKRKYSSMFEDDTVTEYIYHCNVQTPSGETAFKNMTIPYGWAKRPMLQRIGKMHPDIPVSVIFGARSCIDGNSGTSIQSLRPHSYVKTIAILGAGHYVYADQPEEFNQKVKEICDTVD
# Perilipin-1/ABHD5 = Perilipin-1/ABHD5 (Homo sapiens, UniProt O60240+Q8WTS1); assay: Luminescence-based biochemical high throughput dose response assay for inhibitors of the interaction of the lipase co-activator protein, abhydrolase domain containing 5 (ABHD5) with perilipin-1 (PLIN1) (2K validation set). [Related pubchem assays (depositor defined):AID493027, AID493057]
# [6] = Luminescence Cell Based Dose Confirmation HTS to Identify Activators of 5'UTR Stem-Loop Driven Alpha-Synuclein mRNA Translation in H4 Neuroglioblastoma Cells. [Related pubchem assays (depositor defined):AID1813, AID1829]; format: functional; details: Homo sapiens
# [7] = cytotoxicity toward NIH3T3 fibroblasts, dose response, counter-screen, cell-based, ATP luminescence, mouse fibroblasts (AID 2010); format: functional;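 also: cells exposed to compound for about 90 hours before reading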
# Integrin alpha-4 = Integrin alpha-4 (Homo sapiens, UniProt P13612); assay: VLA-4 integrin allosteric ligands, SAR follow-up, cell-based, LIBS antibody binding, flow cytometry (AID 488791); format: functional
# [8] = target: Protein-tyrosine kinase 2-beta (Homo sapiens, UniProt Q14289);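 also: potency of inhibitors of PYK2 kinase phosphorylation of poly-GT substrate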
# Chain of Protein-tyrosine kinase 2-beta (Q14289 whole entry): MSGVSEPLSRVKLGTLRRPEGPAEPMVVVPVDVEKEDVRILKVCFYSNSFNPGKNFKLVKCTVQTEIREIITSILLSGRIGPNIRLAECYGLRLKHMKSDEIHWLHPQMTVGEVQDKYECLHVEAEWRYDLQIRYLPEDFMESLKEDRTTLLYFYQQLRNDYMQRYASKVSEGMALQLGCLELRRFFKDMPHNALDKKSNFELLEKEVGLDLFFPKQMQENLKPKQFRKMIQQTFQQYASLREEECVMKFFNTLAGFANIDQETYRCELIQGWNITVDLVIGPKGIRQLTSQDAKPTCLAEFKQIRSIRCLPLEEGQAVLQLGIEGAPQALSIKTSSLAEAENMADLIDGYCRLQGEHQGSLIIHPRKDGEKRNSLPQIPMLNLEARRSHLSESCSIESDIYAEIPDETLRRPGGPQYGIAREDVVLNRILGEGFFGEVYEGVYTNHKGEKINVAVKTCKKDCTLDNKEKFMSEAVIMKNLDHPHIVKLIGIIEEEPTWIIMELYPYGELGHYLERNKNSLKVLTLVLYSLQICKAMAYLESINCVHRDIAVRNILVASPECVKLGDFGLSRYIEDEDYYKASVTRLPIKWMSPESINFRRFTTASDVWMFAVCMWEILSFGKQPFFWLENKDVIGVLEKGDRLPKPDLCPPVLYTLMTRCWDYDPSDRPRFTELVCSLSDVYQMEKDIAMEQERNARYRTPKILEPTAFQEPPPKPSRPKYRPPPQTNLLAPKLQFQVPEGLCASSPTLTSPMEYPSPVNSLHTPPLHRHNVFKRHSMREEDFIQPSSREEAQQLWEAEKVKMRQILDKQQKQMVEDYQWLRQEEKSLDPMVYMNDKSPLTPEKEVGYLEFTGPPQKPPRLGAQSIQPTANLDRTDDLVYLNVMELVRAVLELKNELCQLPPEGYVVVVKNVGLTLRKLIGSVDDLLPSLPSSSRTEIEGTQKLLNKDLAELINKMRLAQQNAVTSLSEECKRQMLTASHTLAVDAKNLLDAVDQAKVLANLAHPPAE
# [9] = inhibitors of intracellular T. cruzi replication, confirmation, NIH3T3 host cells, beta-gal luminescence (AID 2044); format: functional, cell-based;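 also: intracellular parasites grown in NIH/3T3 mouse fibroblasts as host cells; luminescent beta-galactosidase reporter signal from transgenic T. cruzi replicating inside host cells; inhibitors lower the luminescence signal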
# Coagulation factor XII = Coagulation factor XII (Homo sapiens, UniProt P00748); assay: Factor XIIa Dose Response Confirmation from Single Well HTS. [Related pubchem assays (depositor defined):AID701]; format: functional
# [10] = target: T1, Neuropeptides B/W receptor type 1 (Homo sapiens, UniProt P48145); assay: GPR7 antagonist potency, late-stage follow-up, cell-based, fluorescence, dose response (AID 463251); format: functional
# T1 sequence (P48145 whole entry): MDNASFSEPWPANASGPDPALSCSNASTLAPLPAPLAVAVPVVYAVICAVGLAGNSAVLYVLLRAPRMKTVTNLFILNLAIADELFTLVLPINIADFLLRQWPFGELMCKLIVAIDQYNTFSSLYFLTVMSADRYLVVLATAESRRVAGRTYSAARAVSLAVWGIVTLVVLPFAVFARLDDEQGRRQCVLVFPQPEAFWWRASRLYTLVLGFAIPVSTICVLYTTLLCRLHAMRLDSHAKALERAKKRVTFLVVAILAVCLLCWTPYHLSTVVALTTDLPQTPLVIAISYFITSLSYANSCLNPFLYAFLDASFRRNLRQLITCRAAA
# [11] = target: Melanin-concentrating hormone receptor 1 (Homo sapiens, UniProt Q99705); assay: Late-stage fluorescence-based counterscreen for antagonists of the G-protein coupled receptor 7 (GPR7): cell-based dose response assay to identify antagonists of the melanin-concentrating hormone receptor 1 (MCHR1). [Related pubchem assays (depositor defined):AID1861, AID1880, AID1952, AID2148, AID2251, AID2257, AID485339]; format: functional;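 also: stimulated with 30 nM MCH peptide agonist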
# [12] = target: T2, Kappa-type opioid receptor (Homo sapiens, UniProt P41145); assay: SAR analysis of Antagonists of the Kappa Opioid Receptor (KOR) using an Image-Based Assay - Set 4. [Related pubchem assays (depositor defined):AID1777, AID1785]; format: functional
# T2 sequence (P41145 whole entry): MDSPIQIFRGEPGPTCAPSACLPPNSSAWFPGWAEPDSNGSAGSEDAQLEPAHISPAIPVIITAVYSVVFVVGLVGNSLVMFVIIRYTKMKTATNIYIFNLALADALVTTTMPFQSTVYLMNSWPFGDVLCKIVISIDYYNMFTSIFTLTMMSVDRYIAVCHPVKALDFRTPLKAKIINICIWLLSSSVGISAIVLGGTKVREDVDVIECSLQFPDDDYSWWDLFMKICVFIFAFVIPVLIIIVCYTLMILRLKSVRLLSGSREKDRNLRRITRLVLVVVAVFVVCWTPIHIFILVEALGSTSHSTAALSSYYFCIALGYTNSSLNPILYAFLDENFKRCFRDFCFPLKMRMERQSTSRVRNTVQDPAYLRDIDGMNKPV
# Mu-type opioid receptor = Mu-type opioid receptor (Homo sapiens, UniProt P35372); assay: SAR Analysis of Antagonists of the MOR Receptor using an Image-Based Assay - Set 3. [Related pubchem assays (depositor defined):AID1777, AID1785, AID1786, AID1966, AID2133, AID2136, AID2284, AID2285, AID2420]; format: functional
# Chain of Mu-type opioid receptor (P35372 whole entry): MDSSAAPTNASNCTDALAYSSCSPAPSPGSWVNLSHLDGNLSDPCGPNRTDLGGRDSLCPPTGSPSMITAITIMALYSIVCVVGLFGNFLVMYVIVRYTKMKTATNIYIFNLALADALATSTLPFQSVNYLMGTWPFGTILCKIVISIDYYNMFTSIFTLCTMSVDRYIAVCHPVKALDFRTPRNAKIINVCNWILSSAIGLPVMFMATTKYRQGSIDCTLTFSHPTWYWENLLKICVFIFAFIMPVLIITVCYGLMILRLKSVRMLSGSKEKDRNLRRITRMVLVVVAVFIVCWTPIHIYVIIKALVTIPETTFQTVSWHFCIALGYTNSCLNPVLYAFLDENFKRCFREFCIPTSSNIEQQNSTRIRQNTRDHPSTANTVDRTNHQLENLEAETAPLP
# [13] = target: Delta-type opioid receptor (Homo sapiens, UniProt P41143); assay: SAR Analysis of Antagonists of the DOR Receptor using an Image-Based Assay - Set 3. [Related pubchem assays (depositor defined):AID1777, AID1785]; format: functional;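 also: U2OS cells expressing DOR1 and beta-arrestin GFP stimulated with 100 nM SNC80; imaging of GFP-tagged beta-arrestin moving into spots after receptor activation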
# Chain of Delta-type opioid receptor (P41143 whole entry): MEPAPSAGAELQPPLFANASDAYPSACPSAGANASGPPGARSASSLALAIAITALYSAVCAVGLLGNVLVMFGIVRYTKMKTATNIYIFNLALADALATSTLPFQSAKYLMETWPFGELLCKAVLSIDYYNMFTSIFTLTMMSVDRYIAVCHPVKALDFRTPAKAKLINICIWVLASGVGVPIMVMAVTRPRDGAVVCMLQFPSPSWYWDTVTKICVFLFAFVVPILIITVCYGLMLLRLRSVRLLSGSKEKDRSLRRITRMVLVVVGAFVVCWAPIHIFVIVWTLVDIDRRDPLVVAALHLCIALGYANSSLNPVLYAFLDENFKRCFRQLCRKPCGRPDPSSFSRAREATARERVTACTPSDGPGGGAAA
# [14] = target: T2, Kappa-type opioid receptor; assay: SAR analysis of small molecule antagonists of the kappa opioid receptor via a luminescent beta-arrestin assay - Set 4. [Related pubchem assays (depositor defined):AID1777, AID1778, AID1785, AID1786, AID1966, AID2133, AID2136, AID2285]; format: functional
# [15] = target: T3, DNA repair and recombination protein RAD54-like (Homo sapiens, UniProt Q92698); assay: inhibitors of human RAD54 branch migration, confirmation, biochemical, fluorescence, cherry-picked samples, dose series (AID 651657); format: functional
# T3 sequence (Q92698 whole entry): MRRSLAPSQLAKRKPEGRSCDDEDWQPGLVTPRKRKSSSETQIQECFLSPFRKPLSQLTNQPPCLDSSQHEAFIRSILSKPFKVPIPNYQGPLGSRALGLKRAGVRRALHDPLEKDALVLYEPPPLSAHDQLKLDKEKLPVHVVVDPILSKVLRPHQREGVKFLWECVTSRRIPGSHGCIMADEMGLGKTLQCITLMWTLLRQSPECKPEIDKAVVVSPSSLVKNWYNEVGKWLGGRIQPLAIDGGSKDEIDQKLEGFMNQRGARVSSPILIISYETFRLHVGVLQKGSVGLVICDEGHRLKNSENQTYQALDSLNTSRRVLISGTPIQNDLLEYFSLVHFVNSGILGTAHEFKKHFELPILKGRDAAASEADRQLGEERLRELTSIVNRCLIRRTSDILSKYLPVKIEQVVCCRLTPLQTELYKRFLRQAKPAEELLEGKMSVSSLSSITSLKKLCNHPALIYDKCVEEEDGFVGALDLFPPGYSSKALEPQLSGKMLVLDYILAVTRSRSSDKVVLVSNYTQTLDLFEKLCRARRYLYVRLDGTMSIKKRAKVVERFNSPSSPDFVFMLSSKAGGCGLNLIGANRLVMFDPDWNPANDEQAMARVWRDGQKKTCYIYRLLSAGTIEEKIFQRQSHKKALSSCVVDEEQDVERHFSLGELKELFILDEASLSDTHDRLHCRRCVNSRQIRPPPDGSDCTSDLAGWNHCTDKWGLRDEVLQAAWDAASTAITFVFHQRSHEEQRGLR
# Trypsin = Trypsin (Sus scrofa, UniProt P00761); assay: porcine trypsin inhibitors, dose response, selectivity assay for Rce1 protease inhibitor project, biochemical, quenched peptide fluorescence, cherry-pick (AID 488789)
# [16] = target: T4, Tyrosine-protein phosphatase non-receptor type 7 (Homo sapiens, UniProt P35236); assay: redox-dependent HePTP inhibition, mechanism study, biochemical, fluorescence (AID 2068); format: functional
# T4 sequence (P35236 whole entry): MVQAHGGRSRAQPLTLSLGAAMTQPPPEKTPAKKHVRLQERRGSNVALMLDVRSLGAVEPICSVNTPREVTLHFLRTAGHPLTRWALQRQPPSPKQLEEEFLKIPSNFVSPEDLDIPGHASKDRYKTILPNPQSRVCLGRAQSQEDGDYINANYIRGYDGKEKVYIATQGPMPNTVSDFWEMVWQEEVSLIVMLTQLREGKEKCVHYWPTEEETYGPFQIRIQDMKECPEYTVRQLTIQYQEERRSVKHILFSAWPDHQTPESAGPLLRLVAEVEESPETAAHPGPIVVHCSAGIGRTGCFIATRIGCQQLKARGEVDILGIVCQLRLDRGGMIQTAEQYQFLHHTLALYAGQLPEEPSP
# [17] = target: Dual specificity protein phosphatase 3 (Homo sapiens, UniProt P51452); assay: SAR VHR1 Fluorescent Assay for In Vitro dose response studies Set 2. [Related pubchem assays (depositor defined):AID1654, AID1661, AID1878]; format: functional
# Chain of Dual specificity protein phosphatase 3 (P51452 whole entry): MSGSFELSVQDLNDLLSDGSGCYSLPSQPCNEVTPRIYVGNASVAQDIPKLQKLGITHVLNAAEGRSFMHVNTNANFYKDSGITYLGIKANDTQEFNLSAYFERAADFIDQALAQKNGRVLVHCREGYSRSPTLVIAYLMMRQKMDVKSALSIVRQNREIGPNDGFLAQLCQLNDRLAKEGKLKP
# [18] = target: T5, Dual specificity protein phosphatase 6 (Rattus norvegicus, UniProt Q64346); format: functional;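 also: confirmatory in vitro dose-response testing of MKP-3 inhibition; recombinant His-tagged MKP-3 made in E. coli BL21 with OMFP substrate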
# T5 sequence (Q64346 whole entry): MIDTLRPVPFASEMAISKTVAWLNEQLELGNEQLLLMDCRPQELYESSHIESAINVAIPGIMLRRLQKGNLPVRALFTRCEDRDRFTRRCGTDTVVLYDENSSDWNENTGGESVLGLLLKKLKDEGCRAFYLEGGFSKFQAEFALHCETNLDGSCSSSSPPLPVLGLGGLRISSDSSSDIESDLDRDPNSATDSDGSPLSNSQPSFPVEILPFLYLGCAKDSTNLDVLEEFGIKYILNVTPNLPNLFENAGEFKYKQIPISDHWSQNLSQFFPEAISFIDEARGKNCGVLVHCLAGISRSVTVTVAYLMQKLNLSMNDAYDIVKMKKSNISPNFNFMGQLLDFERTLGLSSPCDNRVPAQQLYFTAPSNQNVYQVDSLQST
# [19] = target: T2, Kappa-type opioid receptor; assay: SAR analysis of small molecule antagonists of the kappa opioid receptor via a luminescent beta-arrestin assay - Set 3. [Related pubchem assays (depositor defined):AID1777, AID1778, AID1785, AID1786, AID1966, AID2133, AID2136, AID2285, AID2495]; format: functional
# [20] = target: T2, Kappa-type opioid receptor; assay: SAR analysis of Antagonists of the Kappa Opioid Receptor (KOR) using an Image-Based Assay - Set 3. [Related pubchem assays (depositor defined):AID1777, AID1785]; format: functional
# Cannabinoid receptor 1 [21] = target: T6, Cannabinoid receptor 1 (Homo sapiens, UniProt P21554); assay: SAR analysis of antagonists of the Cannabinoid Receptor 1 using an Image-Based Assay - Set 3. [Related pubchem assays (depositor defined):AID1961, AID1965]; format: functional
# T6 sequence (P21554 whole entry): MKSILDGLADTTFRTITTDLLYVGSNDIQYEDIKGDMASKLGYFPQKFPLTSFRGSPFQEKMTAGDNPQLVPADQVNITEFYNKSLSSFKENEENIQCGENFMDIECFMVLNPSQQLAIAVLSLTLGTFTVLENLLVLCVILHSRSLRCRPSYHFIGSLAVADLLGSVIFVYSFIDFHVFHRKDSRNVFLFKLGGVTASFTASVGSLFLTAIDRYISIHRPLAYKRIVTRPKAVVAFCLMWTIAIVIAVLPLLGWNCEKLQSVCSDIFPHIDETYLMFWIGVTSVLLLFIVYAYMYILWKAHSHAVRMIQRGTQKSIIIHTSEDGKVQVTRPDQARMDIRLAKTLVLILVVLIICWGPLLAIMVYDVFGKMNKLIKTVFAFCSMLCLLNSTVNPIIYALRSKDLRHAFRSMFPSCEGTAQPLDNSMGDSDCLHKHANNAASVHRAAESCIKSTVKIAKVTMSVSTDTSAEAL
# [22] = target: T7, G-protein coupled receptor 35 (Homo sapiens, UniProt Q9HC97); assay: SAR analysis of Antagonists of the GPR35 Receptor using an Image-Based Assay - Set 4. [Related pubchem assays (depositor defined):[…]]; format: functional
# T7 sequence (Q9HC97 whole entry): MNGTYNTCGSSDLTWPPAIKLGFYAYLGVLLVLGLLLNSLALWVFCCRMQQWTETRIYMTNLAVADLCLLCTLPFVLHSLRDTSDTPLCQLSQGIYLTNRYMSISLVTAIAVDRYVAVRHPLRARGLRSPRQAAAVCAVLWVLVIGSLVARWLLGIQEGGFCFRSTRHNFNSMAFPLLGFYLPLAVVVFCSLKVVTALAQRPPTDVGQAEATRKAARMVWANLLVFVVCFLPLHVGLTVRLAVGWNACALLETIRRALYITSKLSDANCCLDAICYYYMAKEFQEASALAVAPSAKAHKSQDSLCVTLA
# Cannabinoid receptor 2 [23] = target: T8, Cannabinoid receptor 2 (Homo sapiens, UniProt P34972); assay: SAR analysis of agonists of the Cannabinoid Receptor 2 using an Image-Based Assay - Set 2. [Related pubchem assays (depositor defined):AID1961, AID1965]; format: functional
# T8 sequence (P34972 whole entry): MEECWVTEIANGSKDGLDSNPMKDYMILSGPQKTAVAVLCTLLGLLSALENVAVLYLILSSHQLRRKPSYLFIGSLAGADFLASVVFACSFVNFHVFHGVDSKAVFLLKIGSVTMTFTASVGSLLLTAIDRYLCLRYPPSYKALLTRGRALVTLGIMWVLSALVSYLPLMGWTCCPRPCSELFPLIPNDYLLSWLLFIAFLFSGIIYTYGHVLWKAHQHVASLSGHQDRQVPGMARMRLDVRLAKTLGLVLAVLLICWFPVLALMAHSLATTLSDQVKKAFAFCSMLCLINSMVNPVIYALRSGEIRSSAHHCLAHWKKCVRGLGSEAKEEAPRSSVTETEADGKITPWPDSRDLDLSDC
# [24] = target: T7, G-protein coupled receptor 35; assay: SAR analysis of Agonists of the GPR35 Receptor using an Image-Based Assay - Set 3. [Related pubchem assays (depositor defined):AID1961, AID1965]; format: functional
# [25] = target: G-protein coupled receptor 55 (Homo sapiens, UniProt Q9Y2T6); assay: SAR analysis of selective Agonists of GPR55 using an Image-Based Assay - Set 2. [Related pubchem assays (depositor defined):AID1961, AID1965]; format: functional
# Chain of G-protein coupled receptor 55 (Q9Y2T6 whole entry): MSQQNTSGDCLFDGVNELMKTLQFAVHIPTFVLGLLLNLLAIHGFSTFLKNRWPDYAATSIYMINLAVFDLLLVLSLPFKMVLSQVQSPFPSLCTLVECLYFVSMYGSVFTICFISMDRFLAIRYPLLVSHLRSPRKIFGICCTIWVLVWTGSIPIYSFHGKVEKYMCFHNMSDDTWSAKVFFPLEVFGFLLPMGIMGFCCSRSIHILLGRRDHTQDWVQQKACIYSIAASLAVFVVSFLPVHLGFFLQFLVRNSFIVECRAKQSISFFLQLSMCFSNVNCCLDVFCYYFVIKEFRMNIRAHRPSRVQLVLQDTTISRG
# Cannabinoid receptor 2 [26] = target: T8, Cannabinoid receptor 2; assay: SAR analysis of antagonists of the Cannabinoid Receptor 2 using an Image-Based Assay - Set 2. [Related pubchem assays (depositor defined):AID1961, AID1965]; format: functional
# Cannabinoid receptor 1 [27] = target: T6, Cannabinoid receptor 1; assay: SAR analysis of agonists of the Cannabinoid Receptor 1 using an Image-Based Assay - Set 3. [Related pubchem assays (depositor defined):AID1961, AID1965]; format: functional
compound,measurement,setting,value
Clc1ccc(SCCCCN2CCNCC2)cc1,CC50,[1],> 40 µM (active)
same,CC50,[2],> 20 µM (active)
COc1ccc(C2c3c(ncn(CCN4CCOCC4)c3=N)Oc3ccc4ccccc4c32)cc1 (configuration not stated),IC50,Vero,18.7 µM (active)
same,EC50,[3],12.7 µM (active)
same,EC50,[4],11.1 µM (active)
same,AC50,CAAX prenyl protease 2,15.7 µM (active)
O=C(CN1C(=O)/C(=C/c2cccc(Br)c2)SC1=S)Nc1cccnc1,IC50,[5],16 µM (inactive)
same,IC50,Perilipin-1/ABHD5,20.8 µM (inactive)
Cc1ccc(Nc2ccc(-c3ccncc3)s2)c(Br)c1,EC50,[6],3.92 µM (active)
O=C(COc1ccc(/C=N/NC(=O)c2cc3ccccc3o2)cc1Cl)Nc1ccccc1,EC50,[7],19.2 µM (active)
same,EC50,Integrin alpha-4,23.4 µM (active)
same,IC50,[8],2.65 µM (active)
same,EC50,[4],191 µM (active)
same,EC50,[9],2 µM (active)
Cc1ccccc1C(=O)/N=c1\sccn1C,IC50,Coagulation factor XII,> 50 µM (inactive)
CCOc1ccc(CCOc2c(Cl)cnn(-c3ccc(C)cc3)c2=O)cc1OCC,IC50,[10],5.5 µM (active)
same,IC50,[11],14.5 µM (inactive)
CC(C)Cc1ccc(S(=O)(=O)NCc2ccc(C(=O)NCCN(Cc3ccccc3)C(C)C)cc2)cc1,IC50,[12],0.595 µM (active)
same,IC50,Mu-type opioid receptor,> 32 µM (inactive)
same,IC50,[13],> 32 µM (inactive)
same,IC50,[14],4.02 µM (active)
COc1ccc2c(c1)c1ncn(CCN3CCCC3)c(=O)c1n2C,AC50,[15],23.3 µM (active)
same,AC50,Trypsin,19.7 µM (active)
O=C(O)c1ccc(C=c2sc(=CC(=O)c3ccco3)[nH]c2=O)cc1,IC50,[16],4.09 µM (active)
same,IC50,[17],16.2 µM (active)
same,IC50,[18],> 100 µM (inactive)
CCc1ccc(S(=O)(=O)NCc2ccc(C(=O)NCCN3Cc4ccccc4C3)cc2)cc1,IC50,Mu-type opioid receptor,> 32 µM (inactive)
same,IC50,[19],> 20 µM (inactive)
same,IC50,[13],> 32 µM (inactive)
same,IC50,[20],> 32 µM (inactive)
CCc1cc(C(=O)Nc2cc(S(=O)(=O)N3CCOCC3)ccc2OC)sc1C,IC50,Cannabinoid receptor 1 [21],> 32 µM (inactive)
same,IC50,[22],> 32 µM (inactive)
same,EC50,Cannabinoid receptor 2 [23],> 32 µM (inactive)
same,EC50,[24],> 32 µM (inactive)
same,EC50,[25],2.22 µM (active)
same,IC50,Cannabinoid receptor 2 [26],> 32 µM (inactive)
same,EC50,Cannabinoid receptor 1 [27],> 32 µM (inactive)
